Among the data in patent US20070027150A1 (priority 2005, published 2007) are IC50 values, retold here.

One assay deals with His-tagged N-terminal ATP binding domain (amino acid residues 9-236) of HSP90α (Homo sapiens, UniProt P07900). Briefly: HSP90 inhibitor binding potency: TRF competition binding assay. To be noted: Table I; read-out: Hsp90 IC50 Range. The procedure, abridged: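 His-tagged HSP90α N-domain (residues 9-236) incubated 2 h at room temperature with biotinylated radicicol and increasing compound in 50 mM HEPES, 6 mM MgCl2, 20 mM KCl, 0.1% BSA. Bound tracer captured on streptavidin plates, detected with europium anti-His antibody by time-resolved fluorescence; IC50 derived.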
For the compound `Cc1cnc(Oc2ccccc2C2CC(=O)c3c(C)nc(N)nc3C2)s1` (stereo not shown) [Compound 21, 2-amino-4-methyl-7-[2-(5-methyl-thiazol-2-yloxy)-phenyl]-7,8-dihydro-6H-quinazolin-5-one], the IC50 is under 1000 nM.
Regarding `COc1ncccc1-c1ccccc1C1CC(=O)c2c(C)nc(N)nc2C1` (stereo not shown) [Compound 70, 2-amino-7-[2-(2-methoxypyridin-3-yl)phenyl]-4-methyl-7,8-dihydroquinazolin-5(6H)-one], the IC50 is under 1000 nM.
In the case of `Cc1nc(N)nc2c1C(=O)CC(c1ccccc1Oc1cccc(F)c1)C2` (stereo not shown) [Compound 137, 2-amino-7-[2-(3-fluorophenoxy)phenyl]-4-methyl-7,8-dihydroquinazolin-5(6H)-one], the IC50 is under 1000 nM.
On to `COc1cccc(-c2cccc(OC)c2C2CC(=O)c3c(C)nc(N)nc3C2)n1` (stereo not shown) [Compound 132, 2-amino-7-[2-methoxy-6-(6-methoxy-pyridin-2-yl)-phenyl]-4-methyl-7,8-dihydro-6H-quinazolin-5-one], for which the IC50 is under 1000 nM.
For `COc1cccc(C2CCCCC2)c1C1CC(=O)c2c(C)nc(N)nc2C1` (stereo not shown) [Compound 173, 2-amino-7-(2-cyclohexyl-6-methoxyphenyl)-4-methyl-7,8-dihydroquinazolin-5(6H)-one], the IC50 was over 10000 nM.
In the case of `Cc1nc(N)nc2c1C(=O)CC(c1ccccc1-c1ccccc1C(F)(F)F)C2` (stereo not shown) [Compound 109, 2-amino-4-methyl-7-[2′-(trifluoromethyl)-1,1′-biphenyl-2-yl]-7,8-dihydroquinazolin-5(6H)-one], the IC50 was under 1000 nM.
For `Cc1nc(N)nc2c1C(=O)CC(c1ccccc1-c1cccnc1)C2` (stereo not shown) [Compound 26, 2-amino-4-methyl-7-(2-pyridin-3-ylphenyl)-7,8-dihydroquinazolin-5(6H)-one], the IC50 was under 1000 nM.
Turning to `COC(=O)c1cccc(-c2ccccc2C2CC(=O)c3c(C)nc(N)nc3C2)c1` (stereo not shown) [Compound 104, methyl 2′-(2-amino-4-methyl-5-oxo-5,6,7,8-tetrahydroquinazolin-7-yl)-1,1′-biphenyl-3-carboxylate], the IC50 is over 10000 nM.
The same measure, in the same setting: the value for `COc1ccnc(-c2ccccc2C2CC(=O)c3c(C)nc(N)nc3C2)c1` (stereo not shown) [Compound 125, 2-amino-7-[2-(4-methoxy-pyridin-2-yl)-phenyl]-4-methyl-7,8-dihydro-6H-quinazolin-5-one] was under 1000 nM; that for `Cc1nc(N)nc2c1C(=O)CC(c1ccccc1-c1cnn(C)c1)C2` (stereo not shown) [Compound 43, 2-amino-4-methyl-7-[2-(1-methyl-1H-pyrazol-4-yl)phenyl]-7,8-dihydroquinazolin-5(6H)-one] was 1000 to 10000 nM; that for `Cc1nc(N)nc2c1C(=O)CC(c1ccccc1-c1ccccc1Oc1ccccc1)C2` (stereo not shown) [Compound 113, 2-amino-4-methyl-7-(2′-phenoxy-1,1′-biphenyl-2-yl)-7,8-dihydroquinazolin-5(6H)-one] was under 1000 nM.
`Cc1nc(N)nc2c1C(=O)CC(c1cnccc1-c1cccnc1F)C2` (stereo not shown) [Compound 61, 2-amino-7-(2-fluoro-[3,4′]bipyridinyl-3′-yl)-4-methyl-7,8-dihydro-6H-quinazolin-5-one]: the IC50 was under 1000 nM.
As to `COc1cccc(C2=CCCCC2)c1C1CC(=O)c2c(C)nc(N)nc2C1` (stereo not shown) [Compound 78, 2-amino-7-(2-cyclohex-1-en-1-yl-6-methoxyphenyl)-4-methyl-7,8-dihydroquinazolin-5(6H)-one], the IC50 was under 1000 nM.
As to `Cc1nc(N)nc2c1C(=O)CC(c1ccccc1Oc1ccccc1)C2` (stereo not shown) [Compound 133, 2-amino-4-methyl-7-(2-phenoxyphenyl)-7,8-dihydroquinazolin-5(6H)-one], the IC50 was under 1000 nM.
Turning to `Cc1nc(N)nc2c1C(=O)CC(c1cccnc1-c1cnccn1)C2` (stereo not shown) [Compound 34, 2-amino-4-methyl-7-(2-pyrazin-2-ylpyridin-3-yl)-7,8-dihydroquinazolin-5(6H)-one], the IC50 was 1000 to 10000 nM.
Take `Cc1nc(N)nc2c1C(=O)CC(c1cccc3ccccc13)C2` (stereo not shown) [Compound 159, 2-amino-4-methyl-7-(1-naphthyl)-7,8-dihydroquinazolin-5(6H)-one]: the IC50 lay within 1000 to 10000 nM.

The same assay, now with this note: Table II; read-out: Hsp90 IC50 Range.
Turning to `CNc1cccc(-c2cc(F)ccc2C2CC(=O)c3c(C)nc(N)nc3C2)n1` (stereo not shown) [Compound 295, 2-amino-7-[4-fluoro-2-(6-methylamino-pyridin-2-yl)-phenyl]-4-methyl-7,8-dihydro-6H-quinazolin-5-one], the IC50 lay within 1000 to 10000 nM.
For `Cc1nc(N)nc2c1C(=O)CC(c1ccc(F)cc1-c1ncc(C(F)(F)F)cn1)C2` (stereo not shown) [Compound 270, 2-amino-7-[4-fluoro-2-(5-trifluoromethyl-pyrimidin-2-yl)-phenyl]-4-methyl-7,8-dihydro-6H-quinazolin-5-one], the IC50 is under 1000 nM.
Same read-out and setting: the value for `COc1nccnc1-c1cc(F)ccc1C1CC(=O)c2c(C)nc(N)nc2C1` (stereo not shown) [Compound 281, 2-amino-7-[4-fluoro-2-(3-methoxy-pyrazin-2-yl)-phenyl]-4-methyl-7,8-dihydro-6H-quinazolin-5-one] was under 1000 nM; that for `Cc1nc(N)nc2c1C(=O)CC(c1ccc(F)cc1OC(C)C)C2` (stereo not shown) [Compound 176, 2-amino-7-(4-fluoro-2-isopropoxy-phenyl)-4-methyl-7,8-dihydro-6H-quinazolin-5-one] was under 1000 nM.
As to `COc1cccc(Cc2nc(N)nc3c2C(=O)CC(c2ccccc2)C3)c1` (stereo not shown) [Compound 306, 2-amino-4-(3-methoxy-benzyl)-7-phenyl-7,8-dihydro-6H-quinazolin-5-one], the IC50 was 1000 to 10000 nM.
With `COCc1nc(N)nc2c1C(=O)CC(c1ccccc1)C2` (stereo not shown) [Compound 211, 2-amino-4-methoxymethyl-7-phenyl-7,8-dihydro-6H-quinazolin-5-one], the IC50 was over 10000 nM.
On to `Cc1nc(N)nc2c1C(=O)C(C)C(c1ccccc1)C2` (stereo not shown) [Compound 248, 2-amino-4,6-dimethyl-7-phenyl-7,8-dihydro-6H-quinazolin-5-one], for which the IC50 is under 1000 nM.
Regarding `CCc1cc(-n2ccnc2C2CC(=O)c3c(C)nc(N)nc3C2)ccc1C` (stereo not shown) [Compound 333, 2-amino-7-[1-(3-ethyl-4-methyl-phenyl)-1H-imidazol-2-yl]-4-methyl-7,8-dihydro-6H-quinazolin-5-one], the IC50 fell in the range of 1000 to 10000 nM.
`CCOc1cncc(-c2cc(F)ccc2[C@@H]2CC(=O)c3c(C)nc(N)nc3C2)n1` [Compound 336, (S)-2-amino-7-[2-(6-ethoxy-pyrazin-2-yl)-4-fluoro-phenyl]-4-methyl-7,8-dihydro-6H-quinazolin-5-one]: the IC50 was under 1000 nM.
Still for that read-out and setting: the figure for `Nc1ncc2c(n1)CC(c1ccccc1-c1cccnc1F)CC2=O` (stereo not shown) [Compound 243, 2-amino-7-[2-(2-fluoro-pyridin-3-yl)-phenyl]-7,8-dihydro-6H-quinazolin-5-one] is under 1000 nM; for `COc1cccc(-c2cc(F)ccc2[C@H]2CC(=O)c3c(C)nc(N)nc3C2)n1` [Compound 260, (R)-2-amino-7-[4-fluoro-2-(6-methoxy-pyridin-2-yl)-phenyl]-4-methyl-7,8-dihydro-6H-quinazolin-5-one] it is 1000 to 10000 nM; for `CCc1nc(N)nc2c1C(=O)CC(c1ccc(F)cc1-c1cncc(OC)n1)C2` (stereo not shown) [Compound 325, 2-amino-4-ethyl-7-[4-fluoro-2-(6-methoxy-pyrazin-2-yl)-phenyl]-7,8-dihydro-6H-quinazolin-5-one] it is under 1000 nM.
